Assay results reported in patent publication US11141403B2, “Benzimidazoles and indoles as taro inhibitors” (MERCK SHARP & DOHME CORP., priority 2015, dated 2021).
“And” between values parts separate entries of the source, which are not always exact repeats. Equal entries are not always repeated. Where two headings read alike, the source gives them in different places.

How the values were obtained:
MRSA COL (MB 5393) = test: In Vivo Murine Systemic Infection Model; set-up: species or system Staphylococcus aureus; conditions: for Bacteria recovered: tid, neutropenic Balb/C mice, 24 h post challenge; for Fold reduction vs. vehicle alone: kidney cfu
Experimental: The murine systemic infection model determines the therapeutic efficacy of TarO inhibitor/β-lactam combinations in vivo. Staphylococci bacteria can cause a systemic infection and establish a robust growth in the kidneys of the infected animal. MRSA COL can establish an infection even in the presence of β-lactam antibiotic due MRSA COL resistance to β-lactam antibiotics.
Female Balb/C mice were rendered neutropenic (immune suppressed) with a single 250 mg/kg intraperitoneal (ip) dose of cyclophosphamide on […]. MRSA COL (MB 5393) was grown for 16 hours in trypticase soy broth (TSB) at 37° C. and 0.5 mL of diluted culture (˜1×10^4 cfu) was administered intraperitoneal (IP). The TarO inhibitor and β-lactam antibiotic were administered alone or in combination by subcutaneous route at 2, 5 and 8 hr. post challenge (sc, tid). Twenty four hours post challenge mice were euthanized and the kidneys harvested, weighed, homogenized and plated to measure the total number of bacteria recovered as colony forming unit (CFU) remaining in compound treated groups as compared to vehicle (saline) or β-lactam antibiotic alone groups (statistical analyses was determined by one way ANOVA).

MRSA COL (MB5393) = test: TarO Inhibitor/β-Lactam Synergy Assay; format: cell-based, Staphylococcus aureus; conditions: 20 hours; for IC95: TarO inhibitor alone, OD600, 95% growth inhibition, read-out: MITC95 TarO inhibitor alone, Bacteria: SA_MB5393; for MITC95 TarO inhibitor + 4 μg/mL IPM; Bacteria: SA_MB5393: in combination with 4 μg/mL imipenem; for MITC95 TarO inhibitor + 4 μg/mL IPM; Bacteria: SA_MB5393 / MITC95 TarO inhibitor + 8 μg/mL DCX; Bacteria: SA_MB5393: OD600; for MITC95 TarO inhibitor + 8 μg/mL DCX; Bacteria: SA_MB5393: in combination with 8 μg/mL dicloxacillin
Method in brief: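 TarO inhibitors titrated 2-fold from 200 μM (2% DMSO) against MRSA COL, 5×10^5 CFU in CAMHB, with β-lactam fixed at clinical breakpoint (imipenem 4 μg/ml or dicloxacillin 8 μg/ml). Incubated 20 h at 37 °C without shaking; relative growth read as OD600.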

TarO = TarO (Staphylococcus aureus, UniProt Q2G060); test: TarO Biochemical Enzymatic Assay (LC-MS end point, C55-PP-GlcNAc (LIPID III) production); conditions: TarO membrane preparation derived from MRSA COL; read-out: TARO inhibitor IC50
Sequence of TarO (Q2G060 1-351): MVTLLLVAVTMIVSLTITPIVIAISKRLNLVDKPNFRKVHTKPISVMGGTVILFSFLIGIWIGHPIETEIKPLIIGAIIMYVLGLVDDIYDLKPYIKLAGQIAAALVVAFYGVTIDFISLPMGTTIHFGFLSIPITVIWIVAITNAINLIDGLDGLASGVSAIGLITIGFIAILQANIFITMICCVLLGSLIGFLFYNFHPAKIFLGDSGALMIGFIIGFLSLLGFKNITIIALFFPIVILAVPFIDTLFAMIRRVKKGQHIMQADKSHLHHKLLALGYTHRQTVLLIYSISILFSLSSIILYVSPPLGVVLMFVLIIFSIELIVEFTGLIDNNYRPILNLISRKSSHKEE
Description: The pathway for the biosynthesis of wall teichoic acid (WTA) in Staphylococci involves a series of biochemical enzymatic reactions by proteins encoded by the tar genes (teichoic acid ribitol). The first enzymatic step in the synthesis of WTA is initiated by TarO, N-acetylglucosaminyl-1-P transferase, which catalyzes the transfer of N-acetyl-glucosamine-phosphate (GlcNAc-P) to an undecaprenyl phosphate (C55-P), also known as bactoprenyl phosphate, to generate C55-PP-GlcNAc (LIPID III).
The TarO biochemical enzymatic assay is a liquid chromatography-mass spectroscopy (LC-MS) based end point assay that measures C55-P-P-GlcNAc (LIPID III) production. The TarO biochemical enzymatic assay was performed in a 384-well microtiter plate (Labcyte) with a reaction volume of 20 μl. […] The linearity of C55-PP-GlcNAc concentration versus mass spectrometric signal (AC55-PP-GlcNAc/A15C-C55-PP-GlcNAc) was determined with purified C55-PP-GlcNAc. The IC50 values were calculated using the nonlinear regression analysis (sigmoidal dose response fit allowing for a variable slope) of percent inhibition data with minimum and maximum values set to 0 and 100 percent.

Compound	IC95 (MRSA COL (MB5393); Staphylococcus aureus) [µM]	MITC95 TarO inhibitor + 4 μg/mL IPM; Bacteria: SA_MB5393 (MRSA COL (MB5393)) [µM]	MITC95 TarO inhibitor + 8 μg/mL DCX; Bacteria: SA_MB5393 (MRSA COL (MB5393)) [µM]	further results
C[C@@H](O)[C@H]1C(=O)N2C(C(=O)O)=C(SCCN=CN)C[C@H]12 [imipenem, reference compound]				Bacteria recovered (MRSA COL (MB 5393); Imipenem alone (5 mg/kg) sc): 1.0 × 10^6 cfu/g kidney; Fold reduction vs. vehicle alone (MRSA COL (MB 5393); Imipenem alone (5 mg/kg)): 19
CC1(C)[C@@H]2CC[C@@]1(C)[C@H](NC(=O)CCn1c(C3CCCCC3)nc3ccccc31)C2 [Example 37, 3-(2-cyclohexyl-1H-benzimidazol-1-yl)-N-[(1R,2R,4R)-1,7,7-trimethylbicyclo[2.2.1]hept-2-yl]propanamide]	> 200	1.69	12.50	Bacteria recovered (MRSA COL (MB 5393); Example 37 (100 mg/kg) + imipenem (5 mg/kg) sc): 2.6×10^4 cfu/g kidney; Fold reduction vs. vehicle alone (MRSA COL (MB 5393); Example 37 (100 mg/kg) + imipenem (5 mg/kg)): 730 and 730.8; Bacteria recovered (MRSA COL (MB 5393); Example 37 alone (100 mg/kg) sc): 1.5×10^7 cfu/g kidney; Fold reduction vs. vehicle alone (MRSA COL (MB 5393); Example 37 alone (100 mg/kg)): 1.3
CCN(C(=O)CCn1c(C2CCCN(C(=O)OC(C)(C)C)C2)nc2ccccc21)C1CCCCC1 (stereo not drawn) [Example 54]		1.56	12.50	IC95 (MRSA COL (MB5393)): 100 µM; IC50 (TarO): 0.45 µM
CCOc1ccc(-c2nc3ccccc3n2CCC(=O)N(CC)C2CCCCC2)cn1 [Example 38, N-cyclohexyl-3-[2-(6-ethoxypyridin-3-yl)-1H-benzimidazol-1-yl]-N-ethylpropanamide]	> 200	2.08	12.50	
CCOC(=O)N1CCCC(c2nc3ccc(F)cc3n2CCC(=O)N(CC)C2CCCCC2)C1 (stereo not drawn) [Example 23, Ethyl 3-(1-{3-[cyclohexyl(ethyl)amino]-3-oxopropyl}-6-fluoro-1H-benzimidazol-2-yl)piperidine-1-carboxylate]	> 200	9.38	37.50	
CCN(C(=O)CCn1c(C2CCCCC2)nc2ccccc21)C1CCCCC1 [Example 35, N-cyclohexyl-3-(2-cyclohexyl-1H-benzimidazol-1-yl)-N-ethylpropanamide]	> 200	1.95	9.38	
CCN(C(=O)CCn1c2ccc(OC)cc2nc1[C@H]1CC[C@H](CC)CC1)C1CCCCC1 [Example 16, N-cyclohexyl-N-ethyl-3-[2-(trans-4-ethylcyclohexyl)-5-methoxy-1H-benzimidazol-1-yl]propanamide]	> 200	1.04	14.58	
CCC1CCN(Cc2nc3cc(C)ccc3n2CCC(=O)N(CC)C2CCCCC2)CC1 [Example 61, N-cyclohexyl-N-ethyl-3-{2-[(4-ethylpiperidin-1-yl)methyl]-5-methyl-1H-benzimidazol-1-yl}propanamide]	50	6.25	25	
CCCOC(=O)N1CC(c2nc3ccccc3n2CCC(=O)N(CC)C2CCCCC2)CCC1C (stereo not drawn) [Example 49, propyl 5-(1-{3-[cyclohexyl(ethyl)amino]-3-oxopropyl}-1H-benzimidazol-2-yl)-2-methylpiperidine-1-carboxylate]	100	0.78	6.25	
CC1(C)[C@@H]2CC[C@@]1(C)[C@H](NC(=O)CCn1c3ccccc3nc1[C@H]1CC[C@@H](C(C)(C)C)CC1)C2 [Example 33, 3-[2-(cis-4-tert-butylcyclohexyl)-1H-benzimidazol-1-yl]-N-[(1R,2R,4R)-1,7,7-trimethylbicyclo[2.2.1]hept-2-yl]propanamide]	> 200	0.06		
CCc1nsc(N2CCCC(c3nc4ccccc4n3CCC(=O)N(CC)C3CCCCC3)C2)n1 (stereo not drawn) [Example 46, N-cyclohexyl-N-ethyl-3-{2-[1-(3-ethyl-1,2,4-thiadiazol-5-yl)piperidin-3-yl]-1H-benzimidazol-1-yl}propanamide]	100	1.56	6.25	
CCN(C(=O)CCn1c(C2CCCN(c3ccccn3)C2)nc2ccccc21)C1CCCCC1 (stereo not drawn) [Example 48, N-cyclohexyl-N-ethyl-3-[2-(1-pyridin-2-ylpiperidin-3-yl)-1H-benzimidazol-1-yl]propanamide]	> 200	1.56	50	
